Experimental data published in ChEMBL document CHEMBL1201862, “PubChem BioAssay data set” (2004).
The source made the active and inactive calls.

Columns and labels:
Nonstructural protein 1 = Nonstructural protein 1 (Influenza A virus, UniProt Q194T2); format: functional, Influenza A virus (A/California/07/2009(H1N1))
[1] = viability of uninfected HEp-2 cells – cell-based, HTS, cytotoxicity control for RSV inhibitor project, dose response (AID 2410); format: functional; settings: human respiratory syncytial virus
[2] = NIH3T3 cell viability loss – ATP luminescence, mouse fibroblasts, counter-screen, dose response (AID 2010); format: functional, cell-based;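 note: cells exposed to compound for about 90 hours before reading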
[3] = biological target: T1, Calpain-2 catalytic subunit (Sus scrofa, UniProt P43367); assay: m-calpain protease blockers, concentration series – biochemical, fluorogenic peptide substrate, dose response (AID 1420); format: functional
T1 sequence (P43367 whole entry): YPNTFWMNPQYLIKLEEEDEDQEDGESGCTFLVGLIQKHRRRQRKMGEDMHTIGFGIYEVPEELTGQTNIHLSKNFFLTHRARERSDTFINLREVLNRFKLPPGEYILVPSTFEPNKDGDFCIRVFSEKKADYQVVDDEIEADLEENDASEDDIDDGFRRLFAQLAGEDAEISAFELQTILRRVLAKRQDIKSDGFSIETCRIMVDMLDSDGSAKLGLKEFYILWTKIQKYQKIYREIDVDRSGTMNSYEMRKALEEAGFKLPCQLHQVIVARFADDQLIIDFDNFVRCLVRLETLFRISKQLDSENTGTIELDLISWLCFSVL

[4] = Trypanosoma cruzi growth suppression in host cells – NIH3T3 host cells, beta-gal luminescence, confirmation (AID 2044); format: functional, cell-based;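 note: intracellular parasites grown in NIH/3T3 mouse fibroblasts as host cells; luminescent beta-galactosidase reporter signal from transgenic T. cruzi replicating inside host cells; inhibitors lower the luminescence signal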
[5] = biological target: T2, Heat shock factor protein 1 (Mus musculus, UniProt P38532); assay: enhancement of HSF1-driven luciferase signal – cell-based, NIH3T3, luminescence, dose retest, confirmation (AID 435004); format: functional;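 note: stress induced by proteasome inhibitor MG132 added 30 min after compound; luciferase reporter driven by HSF1 response element in NIH3T3 cells; actives raise luminescence as potentiators of the MG132 stress response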
T2 sequence (P38532 whole entry): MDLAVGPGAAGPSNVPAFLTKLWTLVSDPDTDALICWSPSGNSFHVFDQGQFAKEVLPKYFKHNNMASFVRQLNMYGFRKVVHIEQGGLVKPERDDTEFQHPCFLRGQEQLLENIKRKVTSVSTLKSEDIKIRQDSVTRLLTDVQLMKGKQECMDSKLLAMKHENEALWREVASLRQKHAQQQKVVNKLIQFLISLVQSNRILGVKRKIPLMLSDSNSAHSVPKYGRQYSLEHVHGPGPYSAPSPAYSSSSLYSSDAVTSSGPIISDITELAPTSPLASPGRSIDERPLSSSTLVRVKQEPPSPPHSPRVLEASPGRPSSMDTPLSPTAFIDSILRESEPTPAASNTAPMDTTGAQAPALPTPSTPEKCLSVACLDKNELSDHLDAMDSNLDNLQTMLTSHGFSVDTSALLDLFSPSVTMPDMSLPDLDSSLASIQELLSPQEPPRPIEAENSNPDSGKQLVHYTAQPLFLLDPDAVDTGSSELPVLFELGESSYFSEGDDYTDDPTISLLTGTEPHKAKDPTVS

[6] = biological target: Induced myeloid leukemia cell differentiation protein Mcl-1 (Homo sapiens, UniProt Q07820); format: functional
Chain of Induced myeloid leukemia cell differentiation protein Mcl-1 (Q07820 whole entry): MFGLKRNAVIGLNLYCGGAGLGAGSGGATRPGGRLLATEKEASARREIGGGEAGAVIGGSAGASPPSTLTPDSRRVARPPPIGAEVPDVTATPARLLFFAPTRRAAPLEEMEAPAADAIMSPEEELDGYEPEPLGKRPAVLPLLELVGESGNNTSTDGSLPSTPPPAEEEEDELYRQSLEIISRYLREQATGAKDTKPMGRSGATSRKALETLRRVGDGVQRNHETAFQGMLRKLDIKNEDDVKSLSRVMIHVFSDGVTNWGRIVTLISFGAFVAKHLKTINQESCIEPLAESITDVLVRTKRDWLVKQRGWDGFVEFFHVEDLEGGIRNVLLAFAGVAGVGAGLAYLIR

[7] = viability of PTEN-deleted HCT116 cells – cell-based, HCT116 PTEN knockout, dose response (AID 1047); format: functional;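 note: HCT116 colon tumor cells with PTEN knocked out; cells exposed to compound for 60 hours before readout; potency for loss of cell viability measured by luminescence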
[8] = viability of HCT116 lacking mutant beta-catenin – cell-based, human colon tumor, dose response (AID 1045); format: functional;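 note: HCT116 colon tumor cells with beta catenin knocked out; cells exposed to compound for 60 hours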
[9] = Luminescence Cell-Based Dose Confirmation HTS to Identify Inhibitors of Platelet Dense Granule Release. [Related pubchem assays: 1663 (Primary HTS), 1678 (Summary of Project)]; format: functional
[10] = biological target: Luciferin 4-monooxygenase (Photinus pyralis, UniProt P08659); assay: inhibition of purified Photinus pyralis luciferase – biochemical, luminescence, dose response (AID 1891)
Chain of Luciferin 4-monooxygenase (P08659 whole entry): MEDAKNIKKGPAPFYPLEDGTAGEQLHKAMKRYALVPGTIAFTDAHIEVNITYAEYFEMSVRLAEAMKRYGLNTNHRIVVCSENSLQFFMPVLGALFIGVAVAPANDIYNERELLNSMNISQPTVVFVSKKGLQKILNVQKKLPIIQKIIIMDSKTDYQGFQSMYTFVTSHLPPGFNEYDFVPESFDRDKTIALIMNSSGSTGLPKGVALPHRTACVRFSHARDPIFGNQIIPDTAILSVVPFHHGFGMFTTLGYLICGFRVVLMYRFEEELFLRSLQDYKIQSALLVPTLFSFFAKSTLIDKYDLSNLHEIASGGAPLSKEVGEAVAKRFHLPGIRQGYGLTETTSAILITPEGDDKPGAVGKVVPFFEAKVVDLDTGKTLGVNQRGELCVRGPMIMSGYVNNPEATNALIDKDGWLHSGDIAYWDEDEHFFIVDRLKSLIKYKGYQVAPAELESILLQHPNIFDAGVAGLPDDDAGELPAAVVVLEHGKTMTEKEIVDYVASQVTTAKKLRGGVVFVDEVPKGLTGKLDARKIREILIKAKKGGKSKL

[11] = microbe, parasite or virus in culture; format: functional; settings: Mycobacterium tuberculosis
Genome polyprotein = Genome polyprotein (dengue virus type 2, UniProt P29990); assay: flavivirus cap methylation enzyme inhibition – biochemical, confirmation dose response, primary screen (AID 588689); format: functional
Chain of Genome polyprotein (P29990 2492-3391 limits assumed): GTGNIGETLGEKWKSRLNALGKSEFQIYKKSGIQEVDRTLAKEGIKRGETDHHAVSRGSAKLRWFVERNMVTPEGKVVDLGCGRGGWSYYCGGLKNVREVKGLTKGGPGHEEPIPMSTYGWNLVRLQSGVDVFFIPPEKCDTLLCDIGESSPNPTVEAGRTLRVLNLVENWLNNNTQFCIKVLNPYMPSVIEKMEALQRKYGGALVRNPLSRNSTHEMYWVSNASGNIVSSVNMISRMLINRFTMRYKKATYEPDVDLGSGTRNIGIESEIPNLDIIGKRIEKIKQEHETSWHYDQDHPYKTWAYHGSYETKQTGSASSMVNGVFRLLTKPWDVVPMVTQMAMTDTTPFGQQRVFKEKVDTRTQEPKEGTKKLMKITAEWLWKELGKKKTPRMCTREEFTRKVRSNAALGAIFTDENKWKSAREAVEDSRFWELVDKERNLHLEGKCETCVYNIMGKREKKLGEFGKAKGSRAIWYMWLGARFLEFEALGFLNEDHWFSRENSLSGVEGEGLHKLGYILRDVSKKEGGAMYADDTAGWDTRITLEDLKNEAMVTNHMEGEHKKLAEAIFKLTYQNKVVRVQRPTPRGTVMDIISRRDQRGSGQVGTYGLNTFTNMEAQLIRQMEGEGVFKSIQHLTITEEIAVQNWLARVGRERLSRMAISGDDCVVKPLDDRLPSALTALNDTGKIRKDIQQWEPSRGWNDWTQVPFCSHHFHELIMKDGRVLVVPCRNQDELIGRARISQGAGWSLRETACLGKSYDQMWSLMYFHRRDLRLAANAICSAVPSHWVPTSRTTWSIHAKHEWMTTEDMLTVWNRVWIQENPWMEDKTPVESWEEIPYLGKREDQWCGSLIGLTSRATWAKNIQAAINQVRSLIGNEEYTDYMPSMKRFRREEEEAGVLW

Streptococcus = assay: GAS UMAA2166 growth inhibition – luminescence, BacTiterGlo, counter-screen for streptokinase expression inhibitor project, dose response (AID 1915); format: functional, organism-based;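 note: potency for reduction of bacterial viability or growth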
[12] = Luminescence Cell-Based Dose Retest to Confirm Inhibitors of Cancer Stem Cells. [Related pubchem assays (depositor defined):AID2717, AID2721]; format: functional; settings: Homo sapiens
Streptokinase A = biological target: T3, Streptokinase A (Streptococcus pyogenes serotype M1, UniProt P10520); assay: viability-normalized secreted streptokinase activity reduction – plasminogen activation absorbance, OD405, dose response (AID 1914); format: functional, Streptococcus pyogenes M1 GAS;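 note: secreted streptokinase activity via plasminogen activation per viability signal from cell pellet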
T3 sequence (P10520 whole entry): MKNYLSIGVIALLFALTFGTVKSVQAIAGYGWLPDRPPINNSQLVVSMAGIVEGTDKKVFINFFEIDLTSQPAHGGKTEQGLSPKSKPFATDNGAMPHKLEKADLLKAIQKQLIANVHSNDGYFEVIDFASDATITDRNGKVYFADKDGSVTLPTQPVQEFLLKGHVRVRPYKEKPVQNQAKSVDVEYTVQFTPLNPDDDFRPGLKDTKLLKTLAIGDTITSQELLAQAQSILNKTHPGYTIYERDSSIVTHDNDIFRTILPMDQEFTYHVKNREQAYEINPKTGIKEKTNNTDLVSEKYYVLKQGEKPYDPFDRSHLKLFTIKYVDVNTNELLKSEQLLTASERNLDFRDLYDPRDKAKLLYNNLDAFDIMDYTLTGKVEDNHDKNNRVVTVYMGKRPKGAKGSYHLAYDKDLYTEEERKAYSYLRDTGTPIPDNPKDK

[13] = test system: Streptococcus sp. 'group A'; assay: Streptococcus pyogenes SK(-)GAS viability under kanamycin – luminescence, BacTiterGlo, confirmation, counter-screen for streptokinase expression inhibitor project, dose response (AID 1900); format: functional, organism-based
Aminopeptidase N = biological target: T4, Aminopeptidase N (Plasmodium falciparum FcB1/Columbia, UniProt O96935); assay: malaria alanyl aminopeptidase activity blockers – biochemical, fluorogenic H-Leu-NHMec substrate, 1536-well (AID 1445); design: species or system Plasmodium falciparum 3D7, 3D7
T4 sequence (O96935 whole entry): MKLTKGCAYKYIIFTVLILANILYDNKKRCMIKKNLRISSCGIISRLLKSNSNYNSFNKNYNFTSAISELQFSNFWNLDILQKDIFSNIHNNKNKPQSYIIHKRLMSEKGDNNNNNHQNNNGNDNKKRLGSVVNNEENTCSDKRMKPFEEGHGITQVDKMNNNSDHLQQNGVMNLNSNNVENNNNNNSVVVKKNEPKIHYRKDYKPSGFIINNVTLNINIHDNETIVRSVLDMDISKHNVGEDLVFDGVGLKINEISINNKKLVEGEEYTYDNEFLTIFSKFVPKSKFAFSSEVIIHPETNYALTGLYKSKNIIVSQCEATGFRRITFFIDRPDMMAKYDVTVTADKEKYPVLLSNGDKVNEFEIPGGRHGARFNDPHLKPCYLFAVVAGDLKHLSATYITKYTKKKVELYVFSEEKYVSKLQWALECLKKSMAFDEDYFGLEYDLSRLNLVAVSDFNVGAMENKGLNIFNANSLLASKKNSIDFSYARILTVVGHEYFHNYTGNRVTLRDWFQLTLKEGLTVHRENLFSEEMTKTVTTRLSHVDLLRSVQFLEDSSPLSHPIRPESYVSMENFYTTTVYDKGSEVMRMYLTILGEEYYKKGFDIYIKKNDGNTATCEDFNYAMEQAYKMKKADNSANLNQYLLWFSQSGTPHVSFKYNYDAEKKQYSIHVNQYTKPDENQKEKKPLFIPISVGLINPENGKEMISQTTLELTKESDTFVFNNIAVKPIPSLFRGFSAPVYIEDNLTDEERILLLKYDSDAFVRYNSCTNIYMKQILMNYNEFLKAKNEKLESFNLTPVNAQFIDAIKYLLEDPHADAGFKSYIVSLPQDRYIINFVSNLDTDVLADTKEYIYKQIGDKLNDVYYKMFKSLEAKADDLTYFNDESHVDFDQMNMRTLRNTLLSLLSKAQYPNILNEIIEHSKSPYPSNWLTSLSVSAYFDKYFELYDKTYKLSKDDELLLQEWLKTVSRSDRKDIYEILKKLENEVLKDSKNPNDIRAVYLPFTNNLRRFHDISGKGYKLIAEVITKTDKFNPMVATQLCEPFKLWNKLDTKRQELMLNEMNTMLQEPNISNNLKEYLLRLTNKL

[14] = biological target: Heat shock protein HSP 90-alpha (Homo sapiens, UniProt P07900); format: functional, organism-based
[15] = HIV-1 AD8 envelope cell-cell fusion blockers – cherry-pick, dose response (AID 652062); format: functional, cell-based;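 note: luciferase signal from cell-cell fusion driven by HIV-1 clade B AD8 Env; potency is for inhibitors of fusion seen as a drop in luminescence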
[16] = blockers of HIV-1 envelope-mediated cell-cell fusion – cherry-pick, dose response (AID 652057); format: functional, cell-based
[17] = blockers of HIV-1 ZM109 envelope-driven cell-cell fusion – HeLa effector, CEM target cells, luciferase, cherry-pick, dose response (AID 652058); format: functional, cell-based;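 note: luciferase signal from HIV-1 Env mediated cell-cell fusion of effector and target cells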

Chain of Nonstructural protein 1 (Q194T2 whole entry): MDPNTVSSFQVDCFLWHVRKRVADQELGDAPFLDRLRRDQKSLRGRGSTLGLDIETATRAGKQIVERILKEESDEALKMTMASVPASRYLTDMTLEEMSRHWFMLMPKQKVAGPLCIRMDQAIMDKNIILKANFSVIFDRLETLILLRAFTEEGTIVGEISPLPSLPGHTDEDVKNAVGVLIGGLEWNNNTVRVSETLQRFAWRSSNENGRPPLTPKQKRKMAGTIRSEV

## CN1C(=S)N(c2cccnc2)C(=O)/C1=C\c1ccc(N(C)C)cc1
Nonstructural protein 1
  IC50: > 100 µM (active)

## COC(=O)C(NC(=O)c1ccccc1C)(Nc1ncc(S(=O)(=O)c2ccc([N+](=O)[O-])cc2)s1)C(F)(F)F (configuration not stated)
[1]
  CC50: 12.4 µM (active)

## O=C(NCCC1=CCCCC1)c1ccc2c(c1)N(Cc1ccccc1)C(=O)CS2
[2]
  EC50: > 30 µM (not active)
[3]
  IC50: 5.5 µM (not active)
[4]
  EC50: 2.88 µM (active)

## O=C(Nc1nccs1)c1cccc(N2C(=O)c3cccc4c([N+](=O)[O-])ccc(c34)C2=O)c1
[5]
  EC50: 8.49 µM (active)
[6]
  IC50: 1.45 µM (not active)
[7]
  EC50: 3.77 µM (active)
[8]
  EC50: 2.23 µM (active)

## Cc1cccc(N=C(S)NCc2ccncc2)c1C
[9]
  EC50: > 112 µM (not active)
[10]
  EC50: > 112 µM (not active)

## CSc1ccccc1C(=O)Nc1nc2ccccc2[nH]1
[9]
  EC50: > 112 µM (not active)
[10]
  EC50: > 112 µM (not active)

## Clc1ccc(NNc2ccnc3cc(Cl)ccc23)cc1
Nonstructural protein 1
  IC50: 34.6 µM (active)
[11]
  CC50: > 40 µM (active)

## COc1ccc(C(C2C(=O)CC(C)(C)CC2=O)C2C(=O)CC(C)(C)CC2=O)cc1CO
Genome polyprotein
  IC50: 45.8 µM (active)

## NC(=O)CSc1cn(Cc2ccc(F)cc2)c2ccccc12
[9]
  EC50: > 112 µM (not active)
[10]
  EC50: > 112 µM (not active)

## Cc1cc2ccccc2n1CCNC(=O)COc1ccc2ccccc2c1
[1]
  CC50: 21.4 µM (active)

## Fc1ccc(CSc2nc3ccccc3[nH]2)c2ccccc12
Streptococcus
  EC50: 13.9 µM (active)
[12]
  AC50: 5.37 µM (active)
Streptokinase A
  EC50: 14.1 µM (active)
[3]
  IC50: 2.61 µM (not active)
[13]
  EC50: 8.67 µM (active)

## Cc1ccc(-c2nnc(CSc3nc(C(C)C)nc4sc(C)c(C)c34)o2)cc1
[9]
  EC50: > 112 µM (not active)
[10]
  EC50: > 112 µM (not active)

## O=C(Nc1nc(-c2ccccc2)cs1)C1CCCN(S(=O)(=O)c2ccccc2)C1 (configuration not stated)
[2]
  EC50: > 30 µM (not active)
[1]
  CC50: 2.26 µM (active)
[4]
  EC50: 2.68 µM (active)

## Cc1ccc2c(c1)c1nnc(SCC(=O)Nc3ccccc3C(F)(F)F)nc1n2CC(=O)O
Aminopeptidase N
  IC50: 18.6 µM (active)

## CCC(CC)c1nnc(NC(=O)CCNC(=O)c2ccccc2Cl)s1
[9]
  EC50: > 112 µM (not active)
[10]
  EC50: > 112 µM (not active)

## CCCOc1ccc(/C=C2/C(=O)ON=C2C)cc1OCC
Genome polyprotein
  IC50: 29 µM (active)

## CCn1c(NCc2cc(Cl)ccc2O)nc2ccccc21
[1]
  CC50: 44.7 µM (active)

## COc1cccc(C=NNC(=O)c2ccncc2)c1O
Nonstructural protein 1
  IC50: 6.26 µM (active)

## CCCCCCCC1=NN(c2ccc(S(=O)(=O)O)cc2)C(=O)C1N=O (configuration not stated)
Genome polyprotein
  IC50: 27.4 µM (active)

## CCN1CCCC1CN(Cc1cc2ccc(C)cc2nc1O)C(S)=Nc1ccc(F)cc1 (configuration not stated)
[14]
  AC50: 2.64 µM (active)

## O=C(O)c1ccc(N=N/C(=N\Nc2ccc(C(=O)O)cc2)c2ccccc2)cc1
Genome polyprotein
  IC50: 30.4 µM (active)

## Oc1ccc(/C=N/NC(=S)N/N=C/c2ccc(O)cc2)cc1
[9]
  EC50: 0.317 µM (active)
[10]
  EC50: 0.316 µM (active)

## COc1ccc(S(=O)(=O)Nc2ccc3c(c2)CC(=O)N([C@H](C)CO)C[C@H](C)[C@H](CN(C)S(=O)(=O)c2ccccc2)O3)cc1
[15]
  AC50: 2.09 µM (active)
[16]
  AC50: < 0.26 µM (active)

## Cc1noc(C)c1S(=O)(=O)N(C)C[C@@H]1Oc2ccc(NC(=O)NC3CCCCC3)cc2CC(=O)N([C@H](C)CO)C[C@@H]1C
[15]
  AC50: 4.26 µM (active)
[16]
  AC50: 5.98 µM (active)
[17]
  AC50: 4.3 µM (active)

## C/C(=N\Nc1nc(C(=O)O)cs1)c1ccccc1
Aminopeptidase N
  IC50: 34.2 µM (active)

## O=C(O)/C(CC(=O)c1ccc(Cl)cc1)=N/Nc1ccc([N+](=O)[O-])cc1[N+](=O)[O-]
Genome polyprotein
  IC50: 12.5 µM (active)

## C=CC(=O)Nc1cccc(Oc2ccnc(Nc3ccc(N4CCN(C)CC4)cc3)n2)c1
Nonstructural protein 1
  IC50: 23.1 µM (active)

## Cc1ccc(/C=N/NC(=O)C(O)c2ccccc2)o1 (configuration not stated)
[9]
  EC50: > 112 µM (not active)
[10]
  EC50: > 112 µM (not active)

## Cc1ccc(NC(C)C(=O)N/N=C/c2c[nH]c3ccccc23)cc1 (configuration not stated)
[9]
  EC50: > 112 µM (not active)
[10]
  EC50: > 112 µM (not active)
